Like-named read-outs stand apart in the source and are kept apart here.

The nature of series [1]: Cell accumulation and total recovery of coumarins in the bidirectional transport experiment. The note with it: dog.
Procedure: (§1) 10 mM stock solutions of test compounds were prepared in DMSO and diluted with HBSS to the desired concentrations before transport experiments. HBSS (pH 7.4) was used as a transport medium. After washing the MDCK-pHaMDR cell monolayer twice with prewarmed HBSS medium, HBSS medium was preserved to prepare samples of the calibration curves. Then the experiments were carried out by replacing the transport medium in the AP side (0.5 mL, for absorption transport) or BL side (1.5 mL, for efflux transport) with test compounds (50 µM). The plates were shaked at 55 rpm for 90 min at 37 °C in a water bath. Samples were collected from both sides of the cell monolayer, then immediately frozen, lyophilized and preserved below −20 °C. To measure the intracellular accumulation amounts of different coumarins, the cell monolayers were extracted after transport assays with 200 µL 70% MeOH (v/v) for 20 min, then centrifuged and preserved below −20 °C.
(§2) To determine the corresponding coumarins, the lyophilized permeation samples were dissolved in a suitable volume of MeOH, thoroughly vortex-mixed for 1 min and then centrifuged at 16,000× g for 20 min. An aliquot of 20 µL supernatant solution was used for HPLC assay. To measure the intracellular accumulation amount of different coumarins, the aliquots of cell extractions were determined too.
(§3) CA (Cell accumulation): the percent of the coumarins that accumulated in the cell monolayer after transport
(§4) experiment relative to the initial amount. TR (Total recovery): the percent of the total amount of the coumarins
(§5) recovered from both sides of the inserts and intracellular accumulation in MDCK-pHaMDR cell monolayer
(§6) relative to the initial amount. N.D.: not detected. The concentration of all coumarins was 50 µM.
(§7) incubation time was up to 90 min. Data are means ± S.D. (n = 6).
Another series can be described thus: in vitro. Particulars: dog, MDCK-MDR1, pH 7.4.
Series [2] concerns MDCK-pHaMDR cell monolayer. The note with it: dog, 90 min, 50 µM, pH 7.4.
Procedure: as §1, §2, §3, §4, §5, §6, §7
In series [3] the test system is MDCK-pHaMDR cell monolayer. Kind of series: Cell accumulation and total recovery of coumarins in the bidirectional transport experiment. Particulars: 50 µM, 90 min, percent of initial amount, n = 6.
Procedure: as §1, §2, §3, §4, §5, §6, §7
For series [4], the system named is P-gp. The experiment in a line: in vitro. The note with it: dog, not told.
Procedure: The P-gp expression level in the MDCK-pHaMDR cell monolayer was examined by Rh123 transport and intracellular accumulation experiments. Rh123 (10 µM) bidirectional transports with or without the presence of verapamil (100 µM) were undertaken as described above, and the lyophilized permeation samples were dissolved in a proper volume of MeOH. The fluorescence at 485 nm (excitation wavelength) and 538 nm (emission wavelength) was determined on a Cary Eclipse Fluorescence spectrophotometer (Varian Inc., Palo Alto, CA, USA).
In series [5] the test system is P-gp. Kind of series: Rh123 intracellular accumulation in MDCK-pHaMDR cells with or without verapamil. Type of series: cell-based. The note with it: Rh123 10 µM. The protocol:
The fluorescence at 485 nm (excitation wavelength) and 538 nm (emission wavelength) was determined on a Cary Eclipse Fluorescence spectrophotometer (Varian Inc., Palo Alto, CA, USA). To investigate intracellular accumulations of Rh123 as a probe substrate for P-gp, MDCK-pHaMDR cells were seeded on the 6 Wells plates at a density of about 1.0 × 10^5 cells/mL and grew for 48 h. Before the uptake experiments, cells were washed with PBS two times and pre-incubated with serum-free DMEM or 100 µM verapamil for 20 min. Rh123 with the final concentration of 10 µM was added, and cells were incubated with or without the presence of verapamil for 60 min at 37 °C. Then cells were washed with ice-cold PBS three times, and lysed with 0.1% (v/v) Triton X-100 for 15 min at 37 °C [33]. The fluorescence of Rh123 in cell lysates was determined as described above.

Series [6] has as its system MDCK-pHaMDR cell monolayer. The experiment in a line: Bidirectional transport across MDCK-pHaMDR cell monolayer (in vitro BBB model). The note with it: AP to BL; coumarins 50 µM, caffeine 10 µM, atenolol 200 µM; 90 min; mean ± S.D., n = 6.
Procedure: as §1
An Agilent 1100 series HPLC system (Agilent Technologies, Palo Alto, CA, USA) was used with an analytical Diamonsil® C18 column (250 mm × 4.6 mm, 5 µm, Dikma, Beijing, China) equipped with a C18 guard column (8 mm × 4 mm, 5 µm, Dikma). […] The flow rate was 1.0 mL/min. Elution peaks were monitored and the peak areas were used to calculate the compound concentrations.
Papp in AP-BL or BL-AP direction of each coumarin was calculated from the following equation: (2) Papp=dQ/dt·A·C0 [cm/s] where Q is the accumulation quantity of the compound in the receiver side (μmol), dQ/dt is the linear appearance rate of the compound in the receiver side (μmol/s), C0 is the initial concentration in the donor side (μM), and A is the surface area of the membrane insert (cm^2). Data were expressed as the mean ± SD.
Where [7] appears, read: MDCK-pHaMDR cell monolayer, pH 7.4, TR (Total recovery) AP→BL, AP→BL, 50 µM, 90 min, percent of initial amount, n = 6.
[8] abbreviates: MDCK-pHaMDR cell monolayer, pH 7.4, TR (Total recovery) BL→AP, BL→AP, 50 µM, 90 min, percent of initial amount, n = 6.

By Papp A→B is commonly meant the apparent permeability from the apical to the basolateral side of a cell layer. Read a high Papp A→B as fast passage. As a reminder, the Papp B→A is the apparent permeability from the basolateral to the apical side of a cell layer. For the compound `O=c1ccc2ccc(O)cc2o1` [Compound 1, umbelliferone], the recovery at 90 min, 50 µM is 99.3 ± 1.59% in series [1] (setting [7]) and 96.7 ± 3.22% in series [1] (setting [8]). In addition, the Papp A→B at 90 min in “in vitro” turned out to be 35.9 ± 2.28 ×10⁻⁶ cm/s. This compound returned a Papp B→A at 90 min, 50 µM in the series “in vitro” of 32.8 ± 1.25 ×10⁻⁶ cm/s.
In series [1] (setting [7]), `COc1ccc2ccc(=O)oc2c1CC=C(C)C` [Compound 2, osthol] yielded a recovery at 90 min, 50 µM of 105 ± 5.15%. The compound further had a recovery at 90 min, 50 µM in series [1] (setting [8]) of 95.6 ± 1.75%. Also, in series [2], the “CA (Cell accumulation) AP→BL” value is listed as 6.96 ± 1.50% and the “CA (Cell accumulation) BL→AP” value was 3.51 ± 0.68%. In addition, in the series “in vitro”, the Papp A→B at 90 min is 23.8 ± 1.44 ×10⁻⁶ cm/s and the Papp B→A at 90 min, 50 µM turned out to be 20.4 ± 3.04 ×10⁻⁶ cm/s.
For orientation: efflux ratio means the permeability from basolateral to apical divided by that in the opposite direction, in the common usage. Compound `COc1cc2ccc(=O)oc2cc1O` [Compound 3, scopoletin] came in with a recovery at 90 min, 50 µM in series [1] (setting [7]) of 87.5 ± 3.3%. For the same compound, the recovery at 90 min, 50 µM in series [1] (setting [8]) worked out at 92.2 ± 3.16%. Further, in the series “in vitro”, the Papp A→B at 90 min came to 37.1 ± 1.97 ×10⁻⁶ cm/s; the Papp B→A at 90 min, 50 µM is 27.4 ± 3.51 ×10⁻⁶ cm/s; the efflux ratio at 90 min, 50 µM came out at 0.96.
The compound `O=c1ccc2cc3ccoc3cc2o1` [Compound 7, psoralen] came in with a recovery at 90 min, 50 µM in series [1] (setting [7]) of 89.9 ± 6.49%. Moreover, the recovery at 90 min, 50 µM in series [1] (setting [8]) is 94.7 ± 3.85%. Moreover, in series [3], the “CA (Cell accumulation) AP→BL” value amounted to 4.63 ± 0.13% and the “CA (Cell accumulation) BL→AP” value stood at 1.79 ± 0.03%. In “in vitro”, the Papp A→B at 90 min turned out to be 27.3 ± 2.35 ×10⁻⁶ cm/s; the Papp B→A at 90 min, 50 µM amounted to 26.8 ± 2.75 ×10⁻⁶ cm/s; the efflux ratio at 90 min, 50 µM amounted to 0.98.
With `COc1c2occc2cc2ccc(=O)oc12` [Compound 8, xanthotoxin], the recovery at 90 min, 50 µM in series [1] (pH 7.4, TR (Total recovery) AP→BL, AP→BL, 50 µM, 90 min, percent of initial amount, n = 6) was found to be 95.2 ± 4.79%; in series [1] (pH 7.4, TR (Total recovery) BL→AP, BL→AP, 50 µM, 90 min, percent of initial amount, n = 6), 88.7 ± 3.13%.
Regarding `COc1c2ccoc2cc2oc(=O)ccc12` [Compound 9, bergapten], the recovery at 90 min, 50 µM in series [1] (setting [7]) stood at 99.15 ± 0.54%. Also, the recovery at 90 min, 50 µM in series [1] (setting [8]) was found to be 107 ± 1.19%. Also, in the series “in vitro”, the Papp A→B at 90 min worked out at 43.6 ± 2.13 ×10⁻⁶ cm/s; the Papp B→A at 90 min, 50 µM is 37.4 ± 5.81 ×10⁻⁶ cm/s; the efflux ratio at 90 min, 50 µM was 0.86.
In series [1] (setting [7]), `CC(C)=CCOc1c2ccoc2cc2oc(=O)ccc12` [Compound 10, isoimperatorin] gave a recovery at 90 min, 50 µM of 90.2 ± 3.08%. The recovery at 90 min, 50 µM in series [1] (setting [8]) worked out at 86.6 ± 2.89%. For the same compound, in series [3], the “CA (Cell accumulation) AP→BL” value amounted to 5.38 ± 1.14% and the “CA (Cell accumulation) BL→AP” value amounted to 1.65 ± 0.36%. In “in vitro”, this compound registered a Papp A→B at 90 min of 7.29 ± 0.17 ×10⁻⁶ cm/s and an apparent permeability from basolateral to apical (Papp B→A) at 90 min, 50 µM of 3.73 ± 0.33 ×10⁻⁶ cm/s.
In series [1] (setting [7]), `C/C=C(/C)C(=O)OC(C)(C)[C@@H]1Cc2c(ccc3ccc(=O)oc23)O1` [Compound 11, columbianadin] displayed a recovery at 90 min, 50 µM of 67.6 ± 5%. In series [1] (setting [8]), the recovery at 90 min, 50 µM worked out at 64.1 ± 3.63%. Further, the recovery at 90 min, 50 µM in series [1] (MDCK-pHaMDR cell monolayer, pH 7.4, recovery (both sides of the insert and intracellular), both directions) lay within 64 to 68%. Moreover, in series [3], the “CA (Cell accumulation) AP→BL” value is recorded as 21.49 ± 4.56% and the “CA (Cell accumulation) BL→AP” value was 9.44 ± 1.01%. In the series “in vitro”, the Papp A→B at 90 min was 10.4 ± 0.95 ×10⁻⁶ cm/s and the Papp B→A at 90 min, 50 µM amounted to 7.12 ± 0.12 ×10⁻⁶ cm/s.
For the compound `COC(=O)c1ccccc1-c1c2ccc(=N)cc-2oc2cc(N)ccc12` [Rh123, Rhodamine 123], in the series with P-gp [4] (pH 7.4), the Papp A→B at 90 min, 10 µM was found to be 1.18 ± 0.056 ×10⁻⁶ cm/s; the Papp B→A at 90 min, 10 µM was found to be 5.27 ± 0.209 ×10⁻⁶ cm/s; the efflux ratio at 90 min, 10 µM was found to be 4.47 ± 0.24. For the same compound, the efflux ratio at 90 min, 10 µM in the series on P-gp [4] (pH 7.4, with verapamil 100 µM) stood at 1.58. In addition, the “intracellular accumulation with verapamil relative to verapamil-absent group” value in the series on P-gp [5] (100 µM verapamil) amounted to 4.45 fold. Also, in the series on P-gp [5] (60 min, without verapamil, n = 4), the “Intracellular Accumulation Fluorescence Intensity” value worked out at 34.51 ± 1.18.
In the case of `Cn1c(=O)c2c(ncn2C)n(C)c1=O` [caffeine, reference compound], in series [6], the “Papp AP-BL” value is 43.58 ± 4.86 ×10^−6 cm/s. This compound also displayed a Papp A→B at 90 min in “in vitro” of 43.6 ×10⁻⁶ cm/s.

The values are drawn from publication PMC6332004, “Transport of Twelve Coumarins from Angelicae Pubescentis Radix across a MDCK-pHaMDR Cell Monolayer—An in Vitro Model for Blood-Brain Barrier Permeability” (Molecules, 2015).
